In US20170107229A1, “SUBSTITUTED TETRAHYDROPYRIDOTHIENOPYRIMIDINES” (BAYER PHARMA AKTIENGESELLSCHAFT, priority 2014, published 2017) one finds IC50 data, which are given here for 24 molecules.

The experiment deals with T1, human full-length MKNK1 (Homo sapiens, UniProt Q9BUB5, T385D).
T1 construct: GST (N); purchased Carna Biosciences 02-145; host or cells: insect cells (baculovirus expression system)
T1 sequence (Q9BUB5 1-424 isoform Q9BUB5-2 T344D): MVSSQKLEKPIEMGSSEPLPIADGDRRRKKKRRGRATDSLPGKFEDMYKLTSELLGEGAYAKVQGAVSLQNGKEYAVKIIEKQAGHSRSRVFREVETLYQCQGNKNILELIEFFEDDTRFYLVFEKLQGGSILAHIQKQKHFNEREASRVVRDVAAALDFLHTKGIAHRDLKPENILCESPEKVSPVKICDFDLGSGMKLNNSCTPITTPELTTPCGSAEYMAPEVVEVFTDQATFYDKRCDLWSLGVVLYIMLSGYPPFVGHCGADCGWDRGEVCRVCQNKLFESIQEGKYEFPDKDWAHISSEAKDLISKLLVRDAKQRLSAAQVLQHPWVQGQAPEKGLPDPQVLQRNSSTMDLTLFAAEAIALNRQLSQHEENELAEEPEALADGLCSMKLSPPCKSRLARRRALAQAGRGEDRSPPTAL
Kind of experiment: MKNK1 kinase high ATP assay (TR-FRET). Type of experiment: biochemical. To be noted: high ATP (2 mM final), 15 min preincubation with enzyme, GST-MKNK1 (T344D). The method, then:
MKNK1-inhibitory activity at high ATP of compounds of the present invention after their preincubation with MKNK1 was quantified employing the TR-FRET-based MKNK1 high ATP assay as described in the following paragraphs.
A recombinant fusion protein of Glutathione-S-Transferase (GST, N-terminally) and human full-length MKNK1 (amino acids 1-424 and T344D of accession number BAA 19885.1), expressed in insect cells using baculovirus expression system and purified via glutathione sepharose affinity chromatography, was purchased from Carna Biosciences (product no 02-145) and used as enzyme. As substrate for the kinase reaction the biotinylated peptide biotin-Ahx-IKKRKLTRRKSLKG (C-terminus in amide form) was used, which can be purchased e.g. from the company Biosyntan (Berlin-Buch, Germany).
For the assay 50 nL of a 100fold concentrated solution of the test compound in DMSO was pipetted into a black low volume 384well microtiter plate (Greiner Bio-One, Frickenhausen, Germany), 2 μL of a solution of MKNK1 in aqueous assay buffer [50 mM HEPES pH 7.5, 5 mM MgCl2, 1.0 mM dithiothreitol, 0.005% (v/v) Nonidet-P40 (Sigma)] was added and the mixture was incubated for 15 min at 22° C. to allow pre-binding of the test compounds to the enzyme before the start of the kinase reaction. Then the kinase reaction was started by the addition of 3 μL of a solution of adenosine-tri-phosphate (ATP, 3.3 mM=>final conc. in the 5 μL assay volume is 2 mM) and substrate (0.1 μM=>final conc. in the 5 μL assay volume is 0.06 μM) in assay buffer and the resulting mixture was incubated for a reaction time of 30 min at 22° C. The concentration of MKNK1 was adjusted depending of the activity of the enzyme lot and was chosen appropriate to have the assay in the linear range, typical concentrations were in the range of 0.003 μg/mL. The reaction was stopped by the addition of 5 μL of a solution of TR-FRET detection reagents (5 nM streptavidine-XL665 [Cisbio Bioassays, Codolet, France] and 1 nM anti-ribosomal protein S6 (pSer236)-antibody from Invitrogen [#44921G] and 1 nM LANCE EU-W1024 labeled ProteinG [Perkin-Elmer, product no. AD0071]) in an aqueous EDTA-solution (100 mM EDTA, 0.1% (w/v) bovine serum albumin in 50 mM HEPES pH 7.5).
The resulting mixture was incubated for 1 h at 22° C. to allow the formation of complex between the phosphorylated biotinylated peptide and the detection reagents. Subsequently the amount of phosphorylated substrate was evaluated by measurement of the resonance energy transfer from the Eu-chelate to the streptavidine-XL. Therefore, the fluorescence emissions at 620 nm and 665 nm after excitation at 350 nm were measured in a TR-FRET reader, e.g. a Rubystar (BMG Labtechnologies, Offenburg, Germany) or a Viewlux (Perkin-Elmer). The ratio of the emissions at 665 nm and at […] was taken as the measure for the amount of phosphorylated substrate. The data were normalised (enzyme reaction without inhibitor=0% inhibition, all other assay components but no enzyme=100% inhibition).
The term IC50 denotes the concentration that inhibits the measured activity by half. In the case of `CS(=O)(=O)N1CCc2c(sc3ncnc(Nc4cnc5[nH]ncc5c4)c23)C1` [Example 40, 7-(Methylsulfonyl)-N-(1H-pyrazolo[3,4-b]pyridin-5-yl)-5,6,7,8-tetrahydropyrido[4′,3′:4,5]thieno[2,3-d]pyrimidin-4-amine], the IC50 came out at 139 nM.

On to `O=C(N1CCOCC1)N1CCc2c(sc3ncnc(Nc4ccc5[nH]c(=O)sc5c4)c23)C1` [Example 41, 6-{[7-(Morpholin-4-ylcarbonyl)-5,6,7,8-tetrahydropyrido[4′,3′:4,5]thieno[2,3-d]pyrimidin-4-yl]amino}-1,3-benzothiazol-2(3H)-one], for which the 50% inhibitory concentration (IC50) amounted to 216 nM.

As to `COc1cc2[nH]ncc2cc1Nc1ncnc2sc3c(c12)CCN(C(=O)N1CCOCC1)C3` [Example 42, {4-[(6-Methoxy-1H-indazol-5-yl)amino]-5,8-dihydropyrido[4′,3′:4,5]thieno[2,3-d]pyrimidin-7(6H)-yl}(morpholin-4-yl)methanone], the IC50 came out at 22 nM.

Molecule `O=C(N1CCOCC1)N1CCc2c(sc3ncnc(Nc4ccc5[nH]ncc5c4)c23)C1` [Example 43, [4-(1H-Indazol-5-ylamino)-5,8-dihydropyrido[4′,3′:4,5]thieno[2,3-d]pyrimidin-7(6H)-yl](morpholin-4-yl)methanone] gave an IC50 of 48 nM.

In turn, `O=C(N1CCOCC1)N1CCc2c(sc3ncnc(Nc4cnc5[nH]ncc5c4)c23)C1` [Example 44, Morpholin-4-yl[4-(1H-pyrazolo[3,4-b]pyridin-5-ylamino)-5,8-dihydropyrido[4′,3′:4,5]thieno[2,3-d]pyrimidin-7(6H)-yl]methanone] came in with an IC50 of 118 nM.

The molecule `COc1nc2[nH]ncc2cc1Nc1ncnc2sc3c(c12)CCNC3` [Example 45, N-(6-Methoxy-1H-pyrazolo[3,4-b]pyridin-5-yl)-5,6,7,8-tetrahydropyrido[4′,3′:4,5]thieno[2,3-d]pyrimidin-4-amine] had an IC50 of 87 nM.

With `CSc1cc2[nH]ncc2cc1Nc1ncnc2sc3c(c12)CCN(C(=O)N(C)C)C3` [Example 46, N,N-Dimethyl-4-{[6-(methylsulfanyl)-1H-indazol-5-yl]amino}-5,8-dihydropyrido[4′,3′:4,5]thieno[2,3-d]pyrimidine-7(6H)-carboxamide], the 50% inhibitory concentration (IC50) amounted to 87 nM.

`CSc1cc2[nH]ncc2cc1Nc1ncnc2sc3c(c12)CCN(C(=O)N1CCOCC1)C3` [Example 47, [4-{[6-(Methylsulfanyl)-1H-indazol-5-yl]amino}-5,8-dihydropyrido[4′,3′:4,5]thieno[2,3-d]pyrimidin-7(6H)-yl](morpholin-4-yl)methanone] showed a 50% inhibitory concentration (IC50) of 61 nM.

Molecule `CSc1cc2[nH]ncc2cc1Nc1ncnc2sc3c(c12)CCN(S(C)(=O)=O)C3` [Example 48, N-[6-(Methylsulfanyl)-1H-indazol-5-yl]-7-(methylsulfonyl)-5,6,7,8-tetrahydropyrido[4′,3′:4,5]thieno[2,3-d]pyrimidin-4-amine] yielded a concentration for half-maximal inhibition (IC50) of 27 nM.

The molecule `CS(=O)(=O)N1CCc2c(sc3ncnc(Nc4cc5cn[nH]c5cc4Cl)c23)C1` [Example 49, N-(6-Chloro-1H-indazol-5-yl)-7-(methylsulfonyl)-5,6,7,8-tetrahydropyrido[4′,3′:4,5]thieno[2,3-d]pyrimidin-4-amine] returned an IC50 of 125 nM.

Consider `COc1nc2[nH]ncc2cc1Nc1ncnc2sc3c(c12)CCN(S(C)(=O)=O)C3` [Example 50, N-(6-Methoxy-1H-pyrazolo[3,4-b]pyridin-5-yl)-7-(methylsulfonyl)-5,6,7,8-tetrahydropyrido[4′,3′:4,5]thieno[2,3-d]pyrimidin-4-amine], for which it took 40 nM to reach half-maximal inhibition (IC50).

`O=C(N1CCOCC1)N1CCc2c(sc3ncnc(Nc4cc5cn[nH]c5cc4Cl)c23)C1` [Example 51, {4-[(6-Chloro-1H-indazol-5-yl)amino]-5,8-dihydropyrido[4′,3′:4,5]thieno[2,3-d]pyrimidin-7(6H)-yl}(morpholin-4-yl)methanone] showed a half-inhibitory concentration (IC50) of 57 nM.

Take `COc1nc2[nH]ncc2cc1Nc1ncnc2sc3c(c12)CCN(C(=O)N1CCOCC1)C3` [Example 52, {4-[(6-Methoxy-1H-pyrazolo[3,4-b]pyridin-5-yl)amino]-5,8-dihydropyrido[4′,3′:4,5]thieno[2,3-d]pyrimidin-7(6H)-yl}(morpholin-4-yl)methanone]: the IC50 was 13 nM.

The molecule `O=C(N1CCOCC1)N1CCc2c(sc3ncnc(Nc4cc5cn[nH]c5cc4Br)c23)C1` [Example 53, {4-[(6-Bromo-1H-indazol-5-yl)amino]-5,8-dihydropyrido[4′,3′:4,5]thieno[2,3-d]pyrimidin-7(6H)-yl}(morpholin-4-yl)methanone] registered an IC50 of 258 nM.

`COc1cc2[nH]ncc2cc1Nc1ncnc2sc3c(c12)CCN(C(=O)CC(F)(F)F)C3` [Example 54, 3,3,3-Trifluoro-1-{4-[(6-methoxy-1H-indazol-5-yl)amino]-5,8-dihydropyrido[4′,3′:4,5]thieno[2,3-d]pyrimidin-7(6H)-yl}propan-1-one] returned an IC50 of 6 nM.

Molecule `COc1nc2[nH]ncc2cc1Nc1ncnc2sc3c(c12)CCN(C(=O)C(C)C)C3` [Example 55, 1-{4-[(6-Methoxy-1H-pyrazolo[3,4-b]pyridin-5-yl)amino]-5,8-dihydropyrido[4′,3′:4,5]thieno[2,3-d]pyrimidin-7(6H)-yl}-2-methylpropan-1-one] gave an IC50 of 42 nM.

Regarding `CC(C)C(=O)N1CCc2c(sc3ncnc(Nc4cc5cn[nH]c5cc4Cl)c23)C1` [Example 56, 1-{4-[(6-Chloro-1H-indazol-5-yl)amino]-5,8-dihydropyrido[4′,3′:4,5]thieno[2,3-d]pyrimidin-7(6H)-yl}-2-methylpropan-1-one], the concentration for half-maximal inhibition (IC50) turned out to be 71 nM.

The molecule `C[C@@H]1CN(C(=O)N2CCc3c(sc4ncnc(Nc5ccn6nccc6c5)c34)C2)C[C@H](C)O1` [Example 58, [(2R,6S)-2,6-Dimethylmorpholin-4-yl][4-(pyrazolo[1,5-a]pyridin-5-ylamino)-5,8-dihydropyrido[4′,3′:4,5]thieno[2,3-d]pyrimidin-7(6H)-yl]methanone] showed a 50% inhibitory concentration (IC50) of 61 nM.

Molecule `COc1nc2[nH]ncc2cc1Nc1ncnc2sc3c(c12)CCN(C(=O)OC(C)(C)C)C3` [Example 59, tert-Butyl 4-[(6-methoxy-1H-pyrazolo[3,4-b]pyridin-5-yl)amino]-5,8-dihydropyrido[4′,3′:4,5]thieno[2,3-d]pyrimidine-7(6H)-carboxylate] yielded a concentration for half-maximal inhibition (IC50) of 5 nM.

Consider `c1nc(Nc2cc3cn[nH]c3cn2)c2c3c(sc2n1)CN(CCN1CCOCC1)CC3` [Example 60, 7-[2-(Morpholin-4-yl)ethyl]-N-(1H-pyrazolo[3,4-c]pyridin-5-yl)-5,6,7,8-tetrahydropyrido[4′,3′:4,5]thieno[2,3-d]pyrimidin-4-amine], for which the IC50 is 98 nM.

On to `c1nc(Nc2ccc3[nH]ncc3c2)c2c3c(sc2n1)CN(CCN1CCOCC1)CC3` [Example 61, N-(1H-Indazol-5-yl)-7-[2-(morpholin-4-yl)ethyl]-5,6,7,8-tetrahydropyrido[4′,3′:4,5]thieno[2,3-d]pyrimidin-4-amine], for which half-maximal inhibition (IC50) required 25 nM.

With `COc1cc2[nH]ncc2cc1Nc1ncnc2sc3c(c12)CCN(CCN1CCOCC1)C3` [Example 62, N-(6-Methoxy-1H-indazol-5-yl)-7-[2-(morpholin-4-yl)ethyl]-5,6,7,8-tetrahydropyrido[4′,3′:4,5]thieno[2,3-d]pyrimidin-4-amine], half-maximal inhibition (IC50) was put at 9 nM.

Molecule `O=c1[nH]c2ccc(Nc3ncnc4sc5c(c34)CCN(CCN3CCOCC3)C5)cc2s1` [Example 63, 6-({7-[2-(Morpholin-4-yl)ethyl]-5,6,7,8-tetrahydropyrido[4′,3′:4,5]thieno[2,3-d]pyrimidin-4-yl}amino)-1,3-benzothiazol-2(3H)-one] gave a half-inhibitory concentration (IC50) of 236 nM.

`c1nc(Nc2cnc3[nH]ncc3c2)c2c3c(sc2n1)CN(CCN1CCOCC1)CC3` [Example 64, 7-[2-(Morpholin-4-yl)ethyl]-N-(1H-pyrazolo[3,4-b]pyridin-5-yl)-5,6,7,8-tetrahydropyrido[4′,3′:4,5]thieno[2,3-d]pyrimidin-4-amine] yielded a half-inhibitory concentration (IC50) of 119 nM.
